Results on two molecules are retold here after ChEMBL document CHEMBL1201862, “PubChem BioAssay data set” (2004).

Activity calls are given as the source filed them. No stated cut-off is given here; in the data, actives have a measured IC50 and inactives only a lower limit.

In assay [1] the target is T1, Sentrin-specific protease 6 (Homo sapiens, UniProt Q9GZR1).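 Further: Luminescence-based dose-response confirmatory assay of SENP6 inhibition, following up an ultra-high-throughput screen.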
T1 sequence (Q9GZR1 whole entry): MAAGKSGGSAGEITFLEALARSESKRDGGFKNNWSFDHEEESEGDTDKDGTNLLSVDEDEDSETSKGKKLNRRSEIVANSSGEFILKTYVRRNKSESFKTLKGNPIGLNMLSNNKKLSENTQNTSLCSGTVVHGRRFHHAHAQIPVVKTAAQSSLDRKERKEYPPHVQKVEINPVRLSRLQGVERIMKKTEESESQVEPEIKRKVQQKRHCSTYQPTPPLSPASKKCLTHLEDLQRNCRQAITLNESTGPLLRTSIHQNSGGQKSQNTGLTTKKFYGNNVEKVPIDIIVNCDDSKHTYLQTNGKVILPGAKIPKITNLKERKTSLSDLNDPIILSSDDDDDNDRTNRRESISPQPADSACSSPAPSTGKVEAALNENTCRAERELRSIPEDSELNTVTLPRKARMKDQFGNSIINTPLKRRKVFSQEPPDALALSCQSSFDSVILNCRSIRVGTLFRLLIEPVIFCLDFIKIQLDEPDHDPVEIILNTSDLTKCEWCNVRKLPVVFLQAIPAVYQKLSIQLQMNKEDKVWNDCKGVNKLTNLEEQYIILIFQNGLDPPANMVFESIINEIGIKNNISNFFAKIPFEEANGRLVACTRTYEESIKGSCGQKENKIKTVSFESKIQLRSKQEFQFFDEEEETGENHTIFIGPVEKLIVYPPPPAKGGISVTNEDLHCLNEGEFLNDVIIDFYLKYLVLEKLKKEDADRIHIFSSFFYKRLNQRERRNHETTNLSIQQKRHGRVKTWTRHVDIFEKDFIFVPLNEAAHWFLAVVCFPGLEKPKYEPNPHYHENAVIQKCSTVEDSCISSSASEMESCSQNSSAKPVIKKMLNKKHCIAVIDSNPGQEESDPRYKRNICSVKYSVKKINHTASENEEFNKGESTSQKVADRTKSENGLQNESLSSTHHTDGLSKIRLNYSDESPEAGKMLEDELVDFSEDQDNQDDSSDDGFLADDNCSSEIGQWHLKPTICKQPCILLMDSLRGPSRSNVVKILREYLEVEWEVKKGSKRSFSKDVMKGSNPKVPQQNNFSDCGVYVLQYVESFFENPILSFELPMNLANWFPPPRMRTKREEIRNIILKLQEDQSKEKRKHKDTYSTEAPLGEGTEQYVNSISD
In kind it is functional.

Assay [2] concerns the target T2, Sentrin-specific protease 7 (Homo sapiens, UniProt Q9BQF6).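 Further: Luminescence-based dose-response confirmation of ultra-high-throughput screening hits, measuring inhibition of SENP7.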
T2 sequence (Q9BQF6 whole entry): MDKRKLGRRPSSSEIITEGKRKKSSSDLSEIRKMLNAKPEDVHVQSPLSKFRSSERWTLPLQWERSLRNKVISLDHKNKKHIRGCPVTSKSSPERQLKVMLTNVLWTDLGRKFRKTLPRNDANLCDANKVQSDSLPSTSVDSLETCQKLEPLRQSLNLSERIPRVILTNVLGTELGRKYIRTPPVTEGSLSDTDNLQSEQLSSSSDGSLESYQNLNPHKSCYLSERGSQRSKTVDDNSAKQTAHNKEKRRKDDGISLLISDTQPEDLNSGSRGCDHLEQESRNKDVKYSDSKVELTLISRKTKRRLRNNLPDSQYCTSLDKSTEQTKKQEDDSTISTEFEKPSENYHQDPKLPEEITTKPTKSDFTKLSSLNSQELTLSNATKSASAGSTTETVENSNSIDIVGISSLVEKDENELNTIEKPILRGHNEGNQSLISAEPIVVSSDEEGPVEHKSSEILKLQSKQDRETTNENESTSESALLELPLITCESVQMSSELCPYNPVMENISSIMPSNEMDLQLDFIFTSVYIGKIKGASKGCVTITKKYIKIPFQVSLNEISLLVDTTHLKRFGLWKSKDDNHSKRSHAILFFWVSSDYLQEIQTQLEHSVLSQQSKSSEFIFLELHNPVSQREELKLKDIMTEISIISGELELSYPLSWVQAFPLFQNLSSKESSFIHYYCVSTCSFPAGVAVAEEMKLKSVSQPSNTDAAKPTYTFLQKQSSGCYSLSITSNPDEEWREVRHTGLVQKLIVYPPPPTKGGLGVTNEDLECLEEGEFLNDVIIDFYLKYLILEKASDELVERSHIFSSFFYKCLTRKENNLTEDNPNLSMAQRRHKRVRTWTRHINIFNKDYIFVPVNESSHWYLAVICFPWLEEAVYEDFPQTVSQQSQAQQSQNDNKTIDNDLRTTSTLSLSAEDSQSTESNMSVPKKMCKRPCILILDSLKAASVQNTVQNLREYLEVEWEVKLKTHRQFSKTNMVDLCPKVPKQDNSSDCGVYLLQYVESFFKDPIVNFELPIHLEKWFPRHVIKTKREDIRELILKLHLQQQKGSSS
Type of assay: functional.

A word on the IC50: it is the concentration at which inhibition is half-maximal. In the case of `CC1OC(Nc2cccc3ccccc23)C(O)C(O)C1O` (centres undefined), the results for the IC50 in assay [1] and in assay [2] were 3.63 µM (active) and 7.53 µM (active), respectively.
For the molecule `O=C1C=C(Nc2ccccc2)c2ccccc2C1=O`, the results for the IC50 in assay [1] and in assay [2] were 5.8 µM (active) and 12.2 µM (active), respectively.
